Measured values taken from patent publication US5914328A, “Heterocyclic ether compounds useful in controlling neurotransmitter release” (Abbott Laboratories, priority 1995, dated 1999).
Counter-ions that a name gives are not always drawn. Like-named read-outs stand apart in the source and are kept apart here.

Columns and labels:
[1] = tested on: nAChR evoked release of [3H]-dopamine; test: Striatal dopamine release ([3H]-dopamine, superfused rat striatal slices); type: cell-based; details: standard 100 nM (-)-nicotine = 1.0
Method: The protocol for this procedure follows below.
A. Protocol for Determination of Striatal Dopamine Release.
nAChR evoked release of [ring-2,5,6-^3 H]-dopamine (24.4 Ci/mmol) was measured in superfused rat striatal slices. Striata were dissected from two male Sprague-Dawley rats per experiment and sliced 0.35×0.25 mm by a McIlwain Tissue Chopper (Brinkman Instrument Co., Westbury, N.Y.). After two washes with Krebs-HEPES buffer (137 mM NaCl, 4.7 mM KCl, 1 mM MgSO4, 2.5 mM CaCl2, 1.25 mM NaH2 PO4, 10 mM glucose, 15 mM HEPES-NaOH, pH 7.4, containing 10 μM pargyline and 10 μM ascorbic acid), slices were preincubated for 10 minutes at […] under 95%/5% O2 /CO2. After replacing the buffer, slices were labeled with […] [^3 H]-dopamine for 25 min in Krebs-HEPES at […] Aliquots of slices were placed in 18 superfusion chambers of a Brandel SP2000 superfusion apparatus (Brandel, Gaithersberg, Md.). Following 47 minutes of washout, slices were exposed to agonist at various concentrations for4 minutes. Antagonists or inhibitors, when present were introduced 4 minutes prior to and during agonist exposure. Collected fractions were counted in 5 mL of Ecolume. Tissue was recovered from superfusion chambers, solubilized with 1 mL of Solvable™ (DuPont-NEN) and counted in 15 mL of Ecolume. Fractional release of [^3 H]-dopamine was calculated from radioactivity above baseline as a fraction of total radioactivity.

[2] = molecular target: neuronal nicotinic cholinergic channel receptor; test: Binding of [3H]-cytisine to neuronal nicotinic receptors, whole rat brain synaptic membranes
Method: B. Protocol For Determination of Nicotinic Cholinergic Channel Receptor Binding Potencies of Ligands
Binding of [^3 H]-cytisine ([^3 H]-CYT) to nicotinic receptors was accomplished using crude synaptic membrane preparations from whole rat brain (Pabreza et al., Molecular Pharmacol., 1990, 39:9). Washed membranes were stored at -80° C. prior to use. Frozen aliquots were slowly thawed and resuspended in 20 volumes of buffer (containing: 120 mM NaCl, 5 mM KCl, 2 mM MgCl2, 2 mM CaCl2 and 50 mM Tris-Cl, pH 7.4 @4° C.). After centrifuging at 20,000×g for 15 minutes, the pellets were resuspended in 30 volumes of buffer. Homogenate (containing […]) was added to triplicate tubes containing concentrations of test compound and [^3 H]-CYT (1.25 nM) in a final volume of 500 μL. Samples were incubated for 60 minutes at 4° C., then rapidly filtered through Whatman GF/B filters presoaked in 0.5% polyethylimine using 3×4 mL of ice-cold buffer. The filters are counted in 4 mL of Ecolume® (ICN). […] Alternately, data were expressed as a percentage of the total specific binding.

[3] = tested on: cholinergic ligand-gated channels; test: Cholinergic channel activation in PC12 cells, whole-cell patch-clamp; type: cell-based; details: whole-cell patch-clamp current
Source text: D. Protocols for the Determination of Cholinergic Channel Activation in PC12 Cells.
The cholinergic channel activator properties of Example 9 were investigated in PC12 cells using the whole-cell patch-clamp approach to measure current flow through ligand-gated membrane channels.

[4] = example concentration 10 μM (*)
[5] = read-out: Receptor Binding Ki (Table 2)
[6] = read-out: Receptor Binding Ki (Table 1)
[7] = example concentration 1 μM (**)
[8] = example concentration 0.1 μ (***)

## CN1CCC[C@@H]1COc1cccnc1.Cl [Example 1, 3-((1-methyl-2-(R)-pyrrolidinyl)methoxy)pyridine hydrochloride]
[1]; [4]
  Dopamine Release relative to Nicotine: 0.08

## CN1CCC[C@H]1COc1cccnc1.O=C(O)/C=C/C(=O)O [Example 4, 3-((1-methyl-2-(S)-pyrrolidinyl)methoxy)pyridine fumarate]
[1]; [4]
  Dopamine Release relative to Nicotine: 1.0

## CC(Oc1cccnc1)[C@@H]1CCCN1C (stereo partly drawn) [Example 6, 3-(a-methyl-(1-methyl-2-(S)-pyrrolidinyl)methoxy)pyridine hydrochloride]
[2]; [5]
  Ki: 6.7 nM

## c1cnc(OC[C@@H]2CCN2)cn1 [Example 7]
[2]; [3H]-cytisine 1.25 nM, rat brain membranes, 4° C., Table 2, read-out: Receptor Binding Ki (Table 2)
  Ki: 0.44 nM

## CN1CC[C@H]1COc1cnccn1.Cl.Cl [Example 8, 2-((1-methyl-2-(S)-azetidinyl)methoxy)pyrazine dihydrochloride]
[1]; [4]
  Dopamine Release relative to Nicotine: 0.55

## Cl.Cl.c1cncc(OC[C@@H]2CCN2)c1 [Example 9, 3-(2-(S)-azetidinylmethoxy)pyridine dihydrochloride]
[1]; [4]
  Dopamine Release relative to Nicotine: 1.0
[3]
  cholinergic channel activator properties (in words): clear agonist activity

## CN1CC[C@H]1COc1cccnc1 [Example 10, 3-((1-methyl-2-(S)-azetidinyl)methoxypyridinedihydrochloride]
[1]; [4]
  Dopamine Release relative to Nicotine: 1.0
[2]; [6]
  Ki: 0.25 nM

## c1cncc(OC[C@@H]2CCCN2)c1 [Example 14, 3-(2-(S)-pyrrolidinylmethoxypyridine fumarate]
[1]; [7]
  Dopamine Release relative to Nicotine: 1.0
[2]; [6]
  Ki: 0.14 nM

## CN1CCC[C@H]1COc1cncc(Cl)c1 [Example 16, 5chloro-3-((1-methyl-2-(S)-pyrrolidinyl)methoxypyridinedihydrochloride]
[1]; [7]
  Dopamine Release relative to Nicotine: 1.0

## Cc1ccc(OC[C@@H]2CCCN2)cn1.Cl.Cl [Example 18, 6-methyl-3-(2-(S)-pyrrolidinylmethoxy)pyridine dihydrochloride]
[1]; [8]
  Dopamine Release relative to Nicotine: 1.0

## Cc1ccc(OC[C@@H]2CCCN2C)cn1.Cl.Cl [Example 19, 6methyl-3-((1-methyl-2-(S)-pyrrolidinyl)methoxy)pyridine dihydrochloride]
[1]; [8]
  Dopamine Release relative to Nicotine: 0.78
[2]; [6]
  Ki: 1.47 nM

## C[C@@H]1C[C@@H](COc2cccnc2)N(C)C1 [Example 24, 3-((trans-1,4dimethyl-2(S)-pyrrolidinone)methoxy)pyridine dihydrochloride]
[2]; [5]
  Ki: 4.2 nM

## CN1CCCCC1COc1cccnc1 (stereo not shown) [Example 26, 3-((1-methyl-2-piperidinyl)methoxy)pyridine oxalate salt]
[2]; [5]
  Ki: 76 nM

## Cc1ncccc1OC[C@@H]1CCN1 [Example 29, 2-methyl-3-(2-(S)-azetidinylmethoxy)pyridine dihydrochloride]
[2]; [5]
  Ki: 1.3 nM

## CN1CCC[C@H]1COc1cnc2ccccc2c1.Cl [Example 31, 3-(1-methyl-2-(S)-pyrrolidinylmethoxy)quinoline hydrochloride]
[1]; [4]
  Dopamine Release relative to Nicotine: 0.15

## Cl.Cl.Clc1cncc(OC[C@H]2CCCN2)c1 [Example 33, 5-chloro-3-(2-(R)-pyrrolidinylmethoxy)pyridine dihydrochloride]
[1]; [7]
  Dopamine Release relative to Nicotine: 0.62

## Cc1ccc(OC[C@H]2CCCN2C)cn1 [Example 36, 6-methyl-3-((1-methyl-2-(R)-pyrrolidinyl)methoxy)pyridine dihydrochloride]
[2]; [5]
  Ki: 26 nM

## Cc1ccc(OCC2CCCN2)cn1 (stereo not shown) [Example 37, 6methyl-3-(2-(R-pyrrolidinylmethoxy)pyridinedihydrochloride]
[1]; [4]
  Dopamine Release relative to Nicotine: 0.8
[2]; [6]
  Ki: 0.5 nM

## CCN1CCC[C@H]1COc1cccnc1.Cl.Cl [Example 38, 3-((1-ethyl-2(S)-pyrrolidinyl)methoxy)pyridine dihydrochloride]
[1]; [4]
  Dopamine Release relative to Nicotine: 0.6

## Cc1ccncc1OC[C@@H]1CCCN1C.Cl.Cl [Example 46, 4-methyl-3-((1-methyl-2-(S)-pyrrolidinyl)methoxy)pyridine dihydrochloride]
[1]; [4]
  Dopamine Release relative to Nicotine: 0.85

## Clc1ccc(OC[C@@H]2CCN2)cn1 [Example 52, 3-(2-(S)-azetidinylmethoxy)-6-chloropyridine dihydrochloride]
[1]; [4]
  Dopamine Release relative to Nicotine: 1.0

## Cc1ccc(OC[C@@H]2CCN2C)cn1.Cl.Cl [Example 59, 3-((1-methyl-2-(S)-azetidinyl)methoxy)-6-methylpyridine dihydrochloride]
[1]; [4]
  Dopamine Release relative to Nicotine: 0.7

## CN1CCC[C@H]1CCOc1cccnc1.Cl.Cl [Example 103, 3-(2-(1-methyl-2-(S)-pyrrolidinyl)ethoxy)pyridine dihydrochloride]
[1]; [4]
  Dopamine Release relative to Nicotine: 0.3
